One series has as its system HepG2 cells. Briefly: HepG2 cytotoxicity assay. The settings on record: HepG2 cytotoxicity unified across screens; >25 set to 25.00. An outline of the steps: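 HepG2 cells, 2,500 per well in MEM with 10% FBS and 1% NEAA, exposed to compounds for 48 h at 37°C, 5% CO2. Viability read by fluorescence; percent inhibition relative to 50 μM doxorubicin and DMSO controls.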

The subject of series [1] is P. falciparum late stage (stages IV-V) gametocytes. Also on record: method as in Almela et al 2016. As to conditions: P. falciparum late stage gametocyte ATP assay, TCAMS screen; ref Almela et al 2016; read-out: Pf GCT ATP IC50; cited from earlier work.
The test system is the same in series [2]. Briefly: P. falciparum late stage gametocyte ATP depletion assay (Pf GC-ATP). As to conditions: 1: YES; 0: NO; >10-fold selectivity over cytotoxicity.

The structures appear in SMILES notation.

By IC50 is commonly meant the midpoint of a concentration-inhibition curve. In the case of `Cc1cccc2nc(-c3ccc(-c4ccc(CN5CCC(CCN6CCCCC6)CC5)cc4)cc3)[nH]c12.O=C(O)C(F)(F)F` [TCMDC-133929], the Unified cytotox in the series with HepG2 cells amounted to 3.70 µM. Also, in series [1], the concentration for half-maximal inhibition (IC50) is 0.27 µM. In series [2], the “Is compound selective in assay? Pf GC-ATP active?” value (“Is compound selective” for short) is on record as 1 (1: YES).
As to `Fc1ccc2[nH]c(-c3ccc(-c4ccc(CN5CCC(CCN6CCCCC6)CC5)cc4)s3)nc2c1.O=C(O)C(F)(F)F` [TCMDC-133932], the Unified cytotox in the series on HepG2 cells was found to be 3.79 µM. Besides, in series [1], the IC50 was 0.14 µM. Also, the “Is compound selective” value in series [2] is 1 (1: YES).
On to `COc1ccc(-c2cnn3ccc(Nc4cc(OC)c(OC)c(OC)c4)nc23)cc1OC` [TCMDC-134383], for which the Unified cytotox in the series with HepG2 cells turned out to be 12.90 µM. Also, the half-inhibitory concentration (IC50) in series [1] was 1.62 µM. Further, the “Is compound selective” value in series [2] is on record as 0 (0: NO).
On to `CCc1ccc(CN2CCC(CNC(=O)c3cc(-c4cccc(F)c4)cs3)C2)cc1.O=C(O)C(F)(F)F` (stereo not drawn) [TCMDC-134432], for which the Unified cytotox in the series on HepG2 cells amounted to 7.22 µM. Also, the half-inhibitory concentration (IC50) in series [1] was 1.26 µM. In addition, the “Is compound selective” value in series [2] is reported as 0 (0: NO).
On to `COc1ccccc1CCNc1nc(C)cc(N[C@@H](Cc2ccccc2)C(=O)NCc2cccc(F)c2)n1.O=C(O)C(F)(F)F` [TCMDC-134893], for which the Unified cytotox with HepG2 cells was determined as 6.30 µM. Further, in series [1], the concentration for half-maximal inhibition (IC50) was 5.3 µM. The “Is compound selective” value in series [2] was 0 (0: NO).
Turning to `CC(C)(C)OC(=O)NCc1ccc(Nc2nnc(-c3ccc(OCC(=O)NCc4ccc(C(C)(C)C)cc4)c([N+](=O)[O-])c3)o2)cc1` [TCMDC-134991], in the series with HepG2 cells, the Unified cytotox is 3.15 µM. In series [1], the IC50 is 0.7 µM. The “Is compound selective” value in series [2] is recorded as 0 (0: NO).
For the compound `CN1CCN(CC2(Nc3nccc(NCCc4cn(C)c5ccccc45)n3)CCCCC2)CC1` [TCMDC-135122], the Unified cytotox in the series on HepG2 cells is reported as 6.94 µM. Also, the IC50 in series [1] was 0.7 µM. Also, the “Is compound selective” value in series [2] is recorded as 0 (0: NO).
As for `COc1cc(NC(=O)c2sc(-c3ccc(Cl)cc3)cc2NC(=O)c2ccncc2)ccc1OCCN1CCCC1` [TCMDC-135398], the Unified cytotox in the series with HepG2 cells was 3.23 µM. The IC50 in series [1] was 0.15 µM. Besides, in series [2], the “Is compound selective” value is on record as 1 (1: YES).
As to `CCN(CC)CCCNc1nccc(N2CCc3ncnc(Nc4ccc(OCc5cccc(F)c5)c(Cl)c4)c3C2)n1` [TCMDC-135406], the Unified cytotox in the series with HepG2 cells is 5.58 µM. Further, the IC50 in series [1] is 0.72 µM. Further, the “Is compound selective” value in series [2] is on record as 0 (0: NO).
In turn, `COc1cc2ccccc2cc1OCCCN1CCN(CC(c2ccc(F)cc2)N2CCN(C(C)C)CC2)CC1.Cl` (stereo not drawn) [TCMDC-135496] showed a Unified cytotox in the series on HepG2 cells of 3.72 µM. Besides, the IC50 in series [1] is 1.25 µM. Also, the “Is compound selective” value in series [2] was 0 (0: NO).
In the series with HepG2 cells, `COC(=O)c1sc(-c2ccc(Cl)cc2)cc1N(CCCN1CCC(N2CCCCC2)CC1)S(=O)(=O)c1ccc(C)cc1` [TCMDC-135561] showed a Unified cytotox of 4.37 µM. In addition, the concentration for half-maximal inhibition (IC50) in series [1] is 3.36 µM. For the same compound, the “Is compound selective” value in series [2] is given as 0 (0: NO).
The compound `CC(C)(C)N1CCC(N(Cc2ccc(-c3ccc(C(F)(F)F)cc3)cc2)C(=O)Cn2c(CCc3cccc(F)c3F)cc(=O)c3cccnc32)CC1.O=C(O)C(O)C(O)C(=O)O` [TCMDC-136011] displayed a Unified cytotox in the series on HepG2 cells of 3.10 µM. In series [1], the half-inhibitory concentration (IC50) is 2.39 µM. Further, the “Is compound selective” value in series [2] was 0 (0: NO).
`CCn1c(-c2nonc2N)nc2c(-c3cccc(NC(=O)Nc4ccccc4OC)c3)ncc(OCCCN)c21.O=C(O)C(F)(F)F` [TCMDC-136190] showed a Unified cytotox with HepG2 cells of 5.90 µM. Moreover, the IC50 in series [1] was 0.44 µM. The “Is compound selective” value in series [2] is 1 (1: YES).
For the compound `CCn1c(-c2nonc2N)nc2c(-c3cccc(NC(=O)Nc4cccc(C#N)c4)c3)ncc(OCCCN)c21.O=C(O)C(F)(F)F` [TCMDC-136195], the Unified cytotox in the series with HepG2 cells was 24.70 µM. The half-inhibitory concentration (IC50) in series [1] was 3.51 µM. The “Is compound selective” value in series [2] is 0 (0: NO).
Consider `Cl.NCCCOc1cnc(-c2ccccc2)c2nc(-c3nonc3N)n(CCc3ccccc3)c12` [TCMDC-136216], for which the Unified cytotox in the series on HepG2 cells is on record as 5.61 µM. Further, the IC50 in series [1] is 1.4 µM. Besides, in series [2], the “Is compound selective” value is 0 (0: NO).
The compound `O=C(Nc1ccc(F)c(C(F)(F)F)c1)NC1CCN(CCCCCNC(=O)C2CC2c2ccc(Cl)c(Cl)c2)CC1` (stereo not drawn) [TCMDC-136259] returned a Unified cytotox in the series with HepG2 cells of 6.40 µM. Moreover, the IC50 in series [1] is 4.35 µM. Also, the “Is compound selective” value in series [2] is 0 (0: NO).
In turn, `C[C@H]1CN(Cc2cccc(-c3cc(CNC(=O)c4cccc(CC5CCN(C)CC5)c4)ccc3F)c2)CCN1C` [TCMDC-136349] registered a Unified cytotox with HepG2 cells of 6.97 µM. The IC50 in series [1] was 0.85 µM. The “Is compound selective” value in series [2] is listed as 0 (0: NO).
In the series on HepG2 cells, `COc1cc(Br)c(S(=O)(=O)n2cc(CN3CCC(N)CC3)c3cc(Cl)ccc32)cc1OC.O=C(O)C(F)(F)F` [TCMDC-136384] yielded a Unified cytotox of 6.70 µM. In addition, in series [1], the IC50 was 2.42 µM. Moreover, the “Is compound selective” value in series [2] was 0 (0: NO).
`CN(C)Cc1ccc(-c2cccc(Nc3nccc(NCC(O)c4ccccc4)n3)c2)cc1` (stereo not drawn) [TCMDC-136467] registered a Unified cytotox in the series on HepG2 cells of 5.87 µM. The concentration for half-maximal inhibition (IC50) in series [1] was 0.9 µM. The “Is compound selective” value in series [2] is recorded as 0 (0: NO).
As to `Fc1ccc(N(c2nc(-c3cc(F)cc(C(F)(F)F)c3)cs2)C2CCNCC2)cc1.O=C(O)C(F)(F)F` [TCMDC-136656], the Unified cytotox with HepG2 cells is 6.60 µM. In series [1], the IC50 was 3.28 µM. Also, the “Is compound selective” value in series [2] was 0 (0: NO).
In the case of `CN(C)CCNC(=O)c1ccc(-c2cnc3ccc(NCc4ccc(Cl)c(Cl)c4)nn23)cc1` [TCMDC-136678], the Unified cytotox with HepG2 cells worked out at 16.66 µM. For the same compound, the IC50 in series [1] was 0.33 µM. The “Is compound selective” value in series [2] is 1 (1: YES).
In turn, `CCNCc1cccc(-c2ccc3ccnc(N)c3c2)c1` [TCMDC-136869] had a Unified cytotox with HepG2 cells of 12.50 µM. The IC50 in series [1] was 1.66 µM. In addition, in series [2], the “Is compound selective” value was 0 (0: NO).
As to `FC(F)c1nc2ccccc2n1-c1nc(N2CCOCC2)nc(N2CCOCC2)n1` [TCMDC-137004], the Unified cytotox with HepG2 cells was found to be 1.58 µM. The IC50 in series [1] was 5.44 µM. In addition, the “Is compound selective” value in series [2] is given as 0 (0: NO).
The compound `CS(=O)(=O)O.FC(F)(F)COc1c(CCNCCCCNCCc2ccc3ccccc3c2OCC(F)(F)F)ccc2ccccc12` [TCMDC-137169] returned a Unified cytotox with HepG2 cells of 2.80 µM. The IC50 in series [1] is 0.1 µM. Further, in series [2], the “Is compound selective” value was 1 (1: YES).
Regarding `CCN(CC)CCOc1ccc(C(O)(C#CC(O)(c2ccccc2)c2ccc(OCCN(CC)CC)cc2)c2ccccc2)cc1` (stereo not drawn) [TCMDC-137197], the Unified cytotox with HepG2 cells came out at 3.67 µM. The IC50 in series [1] was 0.69 µM. The “Is compound selective” value in series [2] is listed as 0 (0: NO).
In the case of `CCN(CC)CCOc1ccc(C(O)(C#CC(O)(c2ccc(C)cc2)c2ccc(OCCN(CC)CC)cc2)c2ccc(C)cc2)cc1` (stereo not drawn) [TCMDC-137198], the Unified cytotox with HepG2 cells amounted to 1.62 µM. The half-maximal inhibitory concentration (IC50) in series [1] was 0.14 µM. Besides, the “Is compound selective” value in series [2] is given as 1 (1: YES).

(Values after paper PMC6753678, “Fueling Open Innovation for Malaria Transmission-Blocking Drugs: Hundreds of Molecules Targeting Early Parasite Mosquito Stages” (Frontiers in Microbiology, 2019).)
